Measurements from paper PMC12090182, “Repurposing of the RIPK1-Selective Benzo[1,4]oxazepin-4-one Scaffold for the Development of a Type III LIMK1/2 Inhibitor” (ACS Chemical Biology, 2025).
Like-named read-outs stand apart in the source and are kept apart here.

Columns and labels:
Experiment in all cases: biochemical
Type in all cases: binding
[1] = target: 468 kinases including some pathogenic mutants (Homo sapiens, UniProt P57059); conditions: SIK (Entrez SIK1), 100 nM; read-out: Percent Control
[2] = system: 468 kinases including some pathogenic mutants
[3] = target: 468 kinases including some pathogenic mutants (Homo sapiens, UniProt P42685); conditions: FRK (Entrez FRK), 100 nM; read-out: Percent Control
[4] = target: 468 kinases including some pathogenic mutants (Homo sapiens, UniProt P42336, M1043I); conditions: read-out: Percent Control
[5] = target: 468 kinases including some pathogenic mutants (Homo sapiens, UniProt Q15208); conditions: NDR1 (Entrez STK38), 100 nM; read-out: Percent Control
[6] = target: 468 kinases including some pathogenic mutants (Homo sapiens, UniProt P36888, R834Q); conditions: read-out: Percent Control
[7] = target: 468 kinases including some pathogenic mutants (Homo sapiens, UniProt Q9NY57); conditions: YANK2 (Entrez STK32B), 1000 nM; read-out: Percent Control
[8] = target: 468 kinases including some pathogenic mutants (Homo sapiens, UniProt Q9H093); conditions: SNARK (Entrez NUAK2), 100 nM; read-out: Percent Control
[9] = target: 468 kinases including some pathogenic mutants (Homo sapiens, UniProt Q8N568); conditions: DCAMKL2 (Entrez DCLK2), 100 nM; read-out: Percent Control
[10] = target: 468 kinases including some pathogenic mutants (Homo sapiens, UniProt Q13237); conditions: PRKG2 (Entrez PRKG2), 100 nM; read-out: Percent Control
[11] = target: 468 kinases including some pathogenic mutants (Homo sapiens, UniProt P35626); conditions: GRK3 (Entrez ADRBK2), 100 nM; read-out: Percent Control
[12] = target: 468 kinases including some pathogenic mutants (Homo sapiens, UniProt Q13464); conditions: ROCK1 (Entrez ROCK1), 100 nM; read-out: Percent Control
[13] = target: 468 kinases including some pathogenic mutants (Homo sapiens, UniProt P42336); conditions: PIK3CA (Entrez PIK3CA), 100 nM; read-out: Percent Control
[14] = target: 468 kinases including some pathogenic mutants (Homo sapiens, UniProt P04629); conditions: TRKA (Entrez NTRK1), 100 nM; read-out: Percent Control
[15] = target: 468 kinases including some pathogenic mutants (Homo sapiens, UniProt Q12866); conditions: MERTK (Entrez MERTK), 100 nM; read-out: Percent Control
[16] = target: 468 kinases including some pathogenic mutants (Homo sapiens, UniProt O15197); conditions: EPHB6 (Entrez EPHB6), 100 nM; read-out: Percent Control
[17] = target: 468 kinases including some pathogenic mutants (Homo sapiens, UniProt Q99755); conditions: PIP5K1A (Entrez PIP5K1A), 100 nM; read-out: Percent Control
[18] = target: 468 kinases including some pathogenic mutants (Homo sapiens, UniProt Q8TF76); conditions: HASPIN (Entrez GSG2), 100 nM; read-out: Percent Control
[19] = target: 468 kinases including some pathogenic mutants (Homo sapiens, UniProt O75582); conditions: 1000 nM, read-out: Percent Control
[20] = target: 468 kinases including some pathogenic mutants (Homo sapiens, UniProt Q16513); conditions: PKN2 (Entrez PKN2), 1000 nM; read-out: Percent Control
[21] = target: 468 kinases including some pathogenic mutants (Homo sapiens, UniProt Q07002); conditions: read-out: Percent Control
[22] = target: 468 kinases including some pathogenic mutants (Homo sapiens, UniProt P10721, V559D/V654A); conditions: read-out: Percent Control
[23] = target: 468 kinases including some pathogenic mutants (Homo sapiens, UniProt Q13131); conditions: AMPK-alpha1 (Entrez PRKAA1), 100 nM; read-out: Percent Control
[24] = target: 468 kinases including some pathogenic mutants (Homo sapiens, UniProt Q9Y6E0); conditions: MST3 (Entrez STK24), 100 nM; read-out: Percent Control
[25] = target: 468 kinases including some pathogenic mutants (Homo sapiens, UniProt Q9Y2H9); conditions: MAST1 (Entrez MAST1), 100 nM; read-out: Percent Control
[26] = target: 468 kinases including some pathogenic mutants (Homo sapiens, UniProt Q04912); conditions: MST1R (Entrez MST1R), 100 nM; read-out: Percent Control
[27] = target: 468 kinases including some pathogenic mutants (Homo sapiens, UniProt Q13555); conditions: CAMK2G (Entrez CAMK2G), 100 nM; read-out: Percent Control
[28] = target: 468 kinases including some pathogenic mutants (Homo sapiens, UniProt P00519, Q252H)
[29] = target: 468 kinases including some pathogenic mutants (Homo sapiens, UniProt P53355); conditions: DAPK1 (Entrez DAPK1), 100 nM; read-out: Percent Control

468 kinases including some pathogenic mutants (Homo sapiens, UniProt O75582), sequence (O75582 whole entry, change not shown): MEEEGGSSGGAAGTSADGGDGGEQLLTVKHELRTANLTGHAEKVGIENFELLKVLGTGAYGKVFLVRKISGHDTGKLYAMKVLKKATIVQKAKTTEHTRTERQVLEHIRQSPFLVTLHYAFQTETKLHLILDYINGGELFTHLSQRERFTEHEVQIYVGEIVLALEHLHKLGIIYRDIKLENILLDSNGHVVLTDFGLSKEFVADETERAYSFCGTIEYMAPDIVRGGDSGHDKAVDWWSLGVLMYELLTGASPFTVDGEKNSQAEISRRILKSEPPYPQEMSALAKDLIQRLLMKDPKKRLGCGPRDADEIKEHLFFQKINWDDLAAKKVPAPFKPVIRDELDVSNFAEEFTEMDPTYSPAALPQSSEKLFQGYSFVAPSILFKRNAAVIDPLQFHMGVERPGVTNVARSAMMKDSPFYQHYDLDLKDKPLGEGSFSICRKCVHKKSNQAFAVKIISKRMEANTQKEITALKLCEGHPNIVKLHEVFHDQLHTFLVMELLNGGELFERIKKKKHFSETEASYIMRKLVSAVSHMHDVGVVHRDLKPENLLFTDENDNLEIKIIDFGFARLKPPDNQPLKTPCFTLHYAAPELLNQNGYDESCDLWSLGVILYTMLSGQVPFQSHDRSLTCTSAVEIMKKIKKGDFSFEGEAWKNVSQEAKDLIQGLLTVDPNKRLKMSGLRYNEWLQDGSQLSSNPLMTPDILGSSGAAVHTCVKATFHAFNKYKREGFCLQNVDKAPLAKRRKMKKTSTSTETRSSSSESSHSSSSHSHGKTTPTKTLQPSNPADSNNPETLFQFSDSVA
468 kinases including some pathogenic mutants (Homo sapiens, UniProt Q9H093), sequence (Q9H093 whole entry, change not shown): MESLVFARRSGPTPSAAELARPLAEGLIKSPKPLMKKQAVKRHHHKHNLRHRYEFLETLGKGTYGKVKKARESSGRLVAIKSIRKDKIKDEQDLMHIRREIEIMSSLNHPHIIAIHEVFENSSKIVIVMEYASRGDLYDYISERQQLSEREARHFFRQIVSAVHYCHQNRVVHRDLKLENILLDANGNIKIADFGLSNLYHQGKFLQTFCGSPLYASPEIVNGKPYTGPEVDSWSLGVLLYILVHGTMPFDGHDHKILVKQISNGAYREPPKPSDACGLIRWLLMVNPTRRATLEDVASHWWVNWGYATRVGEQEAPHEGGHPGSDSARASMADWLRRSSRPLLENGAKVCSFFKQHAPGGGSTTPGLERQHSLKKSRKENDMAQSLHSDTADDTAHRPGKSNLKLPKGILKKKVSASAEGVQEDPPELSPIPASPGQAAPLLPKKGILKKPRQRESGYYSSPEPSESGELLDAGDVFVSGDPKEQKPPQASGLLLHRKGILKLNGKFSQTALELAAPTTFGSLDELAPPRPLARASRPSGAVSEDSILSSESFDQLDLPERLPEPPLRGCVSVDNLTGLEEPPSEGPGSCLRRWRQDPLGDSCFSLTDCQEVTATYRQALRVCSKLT
468 kinases including some pathogenic mutants (Homo sapiens, UniProt Q9Y2H9), sequence (Q9Y2H9 whole entry, change not shown): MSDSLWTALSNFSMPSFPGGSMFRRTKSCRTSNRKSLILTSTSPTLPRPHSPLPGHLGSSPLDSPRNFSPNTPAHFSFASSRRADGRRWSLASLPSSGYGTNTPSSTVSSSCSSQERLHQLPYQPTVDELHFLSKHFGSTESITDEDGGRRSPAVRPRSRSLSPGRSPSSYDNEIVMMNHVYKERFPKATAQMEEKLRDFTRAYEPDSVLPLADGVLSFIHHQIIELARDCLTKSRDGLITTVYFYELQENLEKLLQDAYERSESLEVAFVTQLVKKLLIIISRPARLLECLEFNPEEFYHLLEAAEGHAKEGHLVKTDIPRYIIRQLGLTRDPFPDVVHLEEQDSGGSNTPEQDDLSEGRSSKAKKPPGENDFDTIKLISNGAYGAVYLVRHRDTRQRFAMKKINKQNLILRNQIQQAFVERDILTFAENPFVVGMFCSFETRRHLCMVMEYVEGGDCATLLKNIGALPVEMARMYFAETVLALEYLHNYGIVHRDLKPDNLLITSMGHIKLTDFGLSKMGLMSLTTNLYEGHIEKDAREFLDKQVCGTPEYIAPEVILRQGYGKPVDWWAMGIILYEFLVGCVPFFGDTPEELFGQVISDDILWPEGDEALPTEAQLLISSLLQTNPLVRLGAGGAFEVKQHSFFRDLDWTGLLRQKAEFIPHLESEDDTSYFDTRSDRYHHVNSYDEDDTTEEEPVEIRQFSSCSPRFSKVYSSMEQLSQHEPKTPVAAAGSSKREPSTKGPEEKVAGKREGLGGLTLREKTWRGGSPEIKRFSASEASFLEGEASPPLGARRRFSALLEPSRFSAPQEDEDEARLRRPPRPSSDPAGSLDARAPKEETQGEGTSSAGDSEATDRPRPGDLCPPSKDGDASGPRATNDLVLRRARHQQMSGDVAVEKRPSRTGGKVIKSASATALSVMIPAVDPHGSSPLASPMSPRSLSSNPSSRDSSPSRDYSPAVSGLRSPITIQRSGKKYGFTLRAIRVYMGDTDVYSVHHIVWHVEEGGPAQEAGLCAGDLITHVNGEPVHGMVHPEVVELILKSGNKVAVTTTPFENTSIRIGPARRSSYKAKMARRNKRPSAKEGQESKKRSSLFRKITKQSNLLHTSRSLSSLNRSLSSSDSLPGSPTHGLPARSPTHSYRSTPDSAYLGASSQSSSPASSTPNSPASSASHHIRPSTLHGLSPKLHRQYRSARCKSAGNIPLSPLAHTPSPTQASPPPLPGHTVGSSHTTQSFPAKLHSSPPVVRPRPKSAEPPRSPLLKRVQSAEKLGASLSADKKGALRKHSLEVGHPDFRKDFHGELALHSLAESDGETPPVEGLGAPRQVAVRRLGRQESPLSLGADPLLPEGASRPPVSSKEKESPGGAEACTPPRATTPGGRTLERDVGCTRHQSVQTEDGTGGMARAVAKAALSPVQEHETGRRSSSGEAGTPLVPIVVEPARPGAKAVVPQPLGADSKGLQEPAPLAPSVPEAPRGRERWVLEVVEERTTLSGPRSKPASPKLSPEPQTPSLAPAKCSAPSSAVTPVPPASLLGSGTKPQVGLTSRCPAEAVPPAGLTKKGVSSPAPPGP
468 kinases including some pathogenic mutants (Homo sapiens, UniProt P04629), sequence (P04629 33-796, change not shown): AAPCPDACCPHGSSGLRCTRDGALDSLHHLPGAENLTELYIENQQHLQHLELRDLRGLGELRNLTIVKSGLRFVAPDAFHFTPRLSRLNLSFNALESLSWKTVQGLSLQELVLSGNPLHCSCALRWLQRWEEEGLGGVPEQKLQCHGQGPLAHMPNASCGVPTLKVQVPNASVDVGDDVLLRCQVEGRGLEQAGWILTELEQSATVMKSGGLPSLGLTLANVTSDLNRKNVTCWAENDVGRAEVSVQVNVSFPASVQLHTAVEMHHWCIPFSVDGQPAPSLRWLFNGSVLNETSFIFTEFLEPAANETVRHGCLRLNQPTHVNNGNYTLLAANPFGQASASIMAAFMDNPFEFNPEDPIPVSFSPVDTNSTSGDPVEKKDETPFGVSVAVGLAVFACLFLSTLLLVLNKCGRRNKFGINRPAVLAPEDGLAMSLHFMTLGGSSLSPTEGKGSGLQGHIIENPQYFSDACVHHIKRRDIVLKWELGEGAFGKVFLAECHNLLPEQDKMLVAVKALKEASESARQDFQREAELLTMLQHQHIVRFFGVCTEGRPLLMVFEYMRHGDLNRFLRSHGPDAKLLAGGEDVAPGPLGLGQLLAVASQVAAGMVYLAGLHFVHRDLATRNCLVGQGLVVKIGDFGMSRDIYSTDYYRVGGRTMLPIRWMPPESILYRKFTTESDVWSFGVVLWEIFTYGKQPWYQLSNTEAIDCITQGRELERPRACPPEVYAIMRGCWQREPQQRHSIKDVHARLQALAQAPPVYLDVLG
468 kinases including some pathogenic mutants (Homo sapiens, UniProt P35626), sequence (P35626 whole entry, change not shown): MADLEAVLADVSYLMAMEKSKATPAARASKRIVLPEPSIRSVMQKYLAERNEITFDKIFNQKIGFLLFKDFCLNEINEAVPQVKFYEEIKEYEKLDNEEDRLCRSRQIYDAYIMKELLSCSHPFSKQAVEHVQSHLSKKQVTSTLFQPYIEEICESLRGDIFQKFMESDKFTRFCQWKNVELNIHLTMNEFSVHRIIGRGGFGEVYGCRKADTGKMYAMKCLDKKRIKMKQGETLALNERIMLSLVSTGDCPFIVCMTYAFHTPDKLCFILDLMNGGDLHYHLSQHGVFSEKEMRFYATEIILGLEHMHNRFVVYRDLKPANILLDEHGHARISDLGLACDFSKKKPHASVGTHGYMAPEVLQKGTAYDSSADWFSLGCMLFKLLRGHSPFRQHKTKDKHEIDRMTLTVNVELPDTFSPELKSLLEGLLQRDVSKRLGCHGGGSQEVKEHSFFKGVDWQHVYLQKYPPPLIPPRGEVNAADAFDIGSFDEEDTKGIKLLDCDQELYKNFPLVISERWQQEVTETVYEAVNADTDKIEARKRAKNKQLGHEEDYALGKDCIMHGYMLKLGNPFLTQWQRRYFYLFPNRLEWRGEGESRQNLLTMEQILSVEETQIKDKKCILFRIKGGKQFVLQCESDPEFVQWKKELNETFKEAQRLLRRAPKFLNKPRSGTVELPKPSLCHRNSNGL
468 kinases including some pathogenic mutants (Homo sapiens, UniProt Q07002), sequence (Q07002 whole entry, stated change not applied): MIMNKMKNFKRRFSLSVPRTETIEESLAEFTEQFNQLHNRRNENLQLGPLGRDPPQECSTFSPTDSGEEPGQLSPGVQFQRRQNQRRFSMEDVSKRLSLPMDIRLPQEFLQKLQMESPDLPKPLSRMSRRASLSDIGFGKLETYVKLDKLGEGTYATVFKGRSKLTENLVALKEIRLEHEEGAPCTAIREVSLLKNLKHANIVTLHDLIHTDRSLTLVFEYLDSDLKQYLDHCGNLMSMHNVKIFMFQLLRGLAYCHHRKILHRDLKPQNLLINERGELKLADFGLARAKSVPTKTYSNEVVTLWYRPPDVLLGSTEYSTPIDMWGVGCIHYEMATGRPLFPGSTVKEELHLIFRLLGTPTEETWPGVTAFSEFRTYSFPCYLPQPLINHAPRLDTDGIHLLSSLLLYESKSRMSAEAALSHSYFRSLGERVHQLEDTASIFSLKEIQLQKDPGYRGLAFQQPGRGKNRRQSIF

## CN1C(=O)[C@@H](N2CCc3c(nn(Cc4ccccc4)c3C(N)=O)C2=O)COc2cc(Cl)ccc21 [Compound 10, (S)-2-benzyl-6-(8-chloro-5-methyl-4-oxo-2,3,4,5-tetrahydrobenzo[b][1,4]oxazepin-3-yl)-7-oxo-4,5,6,7-tetrahydro-2H-pyrazolo[3,4-c]pyridine-3-carboxamide]
[1]
  remaining activity at 0.1 µM: 71%
[2]
  Percent Control: 100%
[2]; FLT3(ITD) (Entrez FLT3), 100 nM
  Percent Control: 54%
[3]
  remaining activity at 0.1 µM: 75%
[4]
  remaining activity at 0.1 µM: 78%
[5]
  remaining activity at 0.1 µM: 86%
[6]
  remaining activity at 0.1 µM: 81%
[7]
  remaining activity at 1 µM: 100%
[8]
  remaining activity at 0.1 µM: 84%
[9]
  remaining activity at 0.1 µM: 100%
[10]
  remaining activity at 0.1 µM: 77%
[11]
  remaining activity at 0.1 µM: 98%
[12]
  remaining activity at 0.1 µM: 76%
[13]
  remaining activity at 0.1 µM: 71%
[14]
  remaining activity at 0.1 µM: 99%
[15]
  remaining activity at 0.1 µM: 72%
[16]
  remaining activity at 0.1 µM: 91%
[17]
  remaining activity at 0.1 µM: 100%
[18]
  remaining activity at 0.1 µM: 89%
[19]; RPS6KA5(Kin.Dom.1-N-terminal) (Entrez RPS6KA5)
  remaining activity at 1 µM: 100%
[19]; RPS6KA5(Kin.Dom.2-C-terminal) (Entrez RPS6KA5)
  remaining activity at 1 µM: 100%
[20]
  remaining activity at 1 µM: 100%
[21]
  remaining activity at 0.1 µM: 100%
[22]
  remaining activity at 0.1 µM: 82%
[23]
  remaining activity at 0.1 µM: 65%
[24]
  remaining activity at 0.1 µM: 97%
[25]
  remaining activity at 0.1 µM: 67%
[26]
  remaining activity at 0.1 µM: 82%
[27]
  remaining activity at 0.1 µM: 78%
[28]; listed as LIJTF500025
  Percent Control: 88%
[28]; read-out: Percent Control
  remaining activity at 0.1 µM: 71%
[29]
  remaining activity at 0.1 µM: 93%
